Results: patent publication US20060079493A1, “Methods for treating genetically- defined proliferative disorders with hsp90 inhibitors” (priority 2001, published 2006)
Like-named read-outs stand apart in the source and are kept apart here.

Key:
K562 cells = assay: MTS assay, cytotoxicity (growth inhibition) on K562; format: cell-based, human; settings: for Metabolic Activity K562: MTS, 3-6 days, DMSO control = 100%
Experimental: The cell line is widely available, e.g., from American Type Culture Collection (“ATCC”; Manassas, Va., USA; cat# CCL-243) and can be propogated in a variety of media, e.g., ATCC's Iscove's modified Dulbecco's medium with 4 mM L-glutamine adjusted to contain 1.5 g/L sodium bicarbonate, 90%; fetal bovine serum, 10%; 37C.
(§1) To K562 cells (suspension grown in DMEM media supplemented w/10% Fetal Bovine Serum (FBS) and 1 mM HEPES; subcultured biweekly at 100K cells/ml) in a 96 well plate (0.1 ml medium; 2000 cells per well) were added various concentrations of 17-AAG (CF7) and the effects measured over a period of 3-6 days using an MTS assay protocol similar to that offered by Promega Corp (Madison, Wis., US; cat# G5421).
(§2) The MTS assay is a colorimetric assay for determining the number of viable cells in proliferation, cytotoxicity or chemosensitivity assays. The CellTiter 96® AQueous Assay is composed of solutions of tetrazolium compound (3-(4,5-dimethylthiazol-2-yl)-5-(3-carboxymethoxyphenyl)-2-(4-sulfophenyl)-2H-tetrazolium, inner salt; MTS) and an electron coupling reagent (phenazine methosulfate) PMS. MTS is bioreduced by cells into a formazan that is soluble in tissue culture medium. Barltrop et al. (1991) Bioorg. & Med. Chem. Lett. 1, 611. The absorbance of the formazan at 490 nm can be measured directly from 96 well assay plates without additional processing. Cory et al. (1991) Cancer Commun. 3, 207; Riss, T. L. and Moravec, R. A. (1992) Mol. Biol. Cell 3 (Suppl.), 184a. The conversion of MTS into the aqueous soluble formazan is accomplished by dehydrogenase enzymes found in metabolically active cells. The quantity of formazan product as measured by the amount of 490 nm absorbance is directly proportional to the number of living cells in culture.
(§3) Using the MTS assay, cytotoxicity (defined as “growth inhibition” and not necessarily versus renal proximal tubular […] cells (normal cells) was determined as shown in the following Tables. “Sem” refers to standard error of the mean, which is calculated as the standard deviation divided by the square root of the sample size; the numbers reflect triplicate replicates. Dilutions of the compounds were prepared in DMSO and straight DMSO was used as a control corresponding to 100% metabolic activity.

RPTEC = assay: MTS assay, cytotoxicity (growth inhibition) on normal cells RPTEC; format: cell-based; settings: for IC50: read-out: RPTEC IC50; for Metabolic Activity RPTEC: MTS, 3-6 days, DMSO control = 100%
Experimental: as §1, §2, §3

[1] = test system: bcr-abl expressing leukemia cell lines; settings: average of six cell lines; read-out: IC50 averaged in six bcr-abl expressing leukemia cell lines; cited from earlier work
[2] = test system: bcr-abl-negative leukemia lines; settings: mean of four cell lines; read-out: mean IC50 in a panel of four bcr-abl-negative leukemia lines; cited from earlier work
[3] = Homo sapiens, K562, read-out: K562 IC50
[4] = separate study, compared with compound 237

CCCNC/C=C/CNC1=C2CC(C)CC(OC)C(O)C(C)/C=C(\C)C(OC(N)=O)C(OC)/C=C\C=C(/C)C(=O)NC(=CC1=O)C2=O (stereo not shown) [Compound 481]
IC50 (K562 cells; [3]): 400 nM | IC50 (RPTEC; Homo sapiens, RPTEC): 4000 nM

COC1/C=C\C=C(/C)C(=O)NC2=CC(=O)C(NCCN(C)CCNC3=C4CC(C)CC(OC)C(O)C(C)/C=C(\C)C(OC(N)=O)C(OC)/C=C\C=C(/C)C(=O)NC(=CC3=O)C4=O)=C(CC(C)CC(OC)C(O)C(C)/C=C(\C)C1OC(N)=O)C2=O (stereo not shown) [Compound 483]
IC50 (K562 cells; Homo sapiens, K562, bcr-abl fusion protein cancer line, MTS assay, read-out: K562 IC50): 70 nM | IC50 (RPTEC; Homo sapiens, RPTEC): 1000 nM

CO[C@H]1[C@@H](OC)C[C@H](C)[C@@H](OC)C2=CC(=O)C=C(NC(=O)/C(C)=C/C=C\[C@H](OC)[C@@H](OC(N)=O)/C(C)=C/[C@@H]1C)C2=O [herbimycin A]
IC50 [1]: 29.3 nM | IC50 [2]: 399 nM

COC1/C=C\C=C(/C)C(=O)NC2=CC(=O)C(NCCCN(C)CCCNC3=C4CC(C)CC(OC)C(O)C(C)/C=C(\C)C(OC(N)=O)C(OC)/C=C\C=C(/C)C(=O)NC(=CC3=O)C4=O)=C(CC(C)CC(OC)C(O)C(C)/C=C(\C)C1OC(N)=O)C2=O (stereo not shown) [Compound 208]
IC50 (K562 cells; [3]): 50 nM | IC50 (RPTEC; Homo sapiens, RPTEC): 1000 nM

C=CCNC1=C2C[C@@H](C)C[C@H](OC)[C@H](O)[C@@H](C)/C=C(\C)[C@H](OC(N)=O)[C@@H](OC)/C=C\C=C(/C)C(=O)NC(=CC1=O)C2=O [CF7, 17-allylamino-17-demethoxygeldanamycin]
Metabolic Activity K562 (K562 cells; 0.0003 uM): 88.00% | Metabolic Activity K562 (K562 cells; 0.0010 uM): 83.81% | Metabolic Activity K562 (K562 cells; 0.0030 uM): 83.00% | Metabolic Activity K562 (K562 cells; 0.0100 uM): 85.94% | Metabolic Activity K562 (K562 cells; 0.0300 uM): 80.12% | Metabolic Activity K562 (K562 cells; 0.1000 uM): 44.06% | Metabolic Activity K562 (K562 cells; 0.3000 uM): 14.40% | Metabolic Activity K562 (K562 cells; 1.0000 uM): 9.51% | Metabolic Activity K562 (K562 cells; 3.0000 uM): 8.12% | Metabolic Activity K562 (K562 cells; 10.0000 uM): 7.89% | IC50 (K562 cells; bcr-abl fusion protein cancer line, MTS assay, read-out: K562 IC50): 70 nM | Metabolic Activity RPTEC (RPTEC; 0.0003 uM): 98.69% | Metabolic Activity RPTEC (RPTEC; 0.0010 uM): 92.26% | Metabolic Activity RPTEC (RPTEC; 0.0030 uM): 92.73% | Metabolic Activity RPTEC (RPTEC; 0.0100 uM): 91.81% | Metabolic Activity RPTEC (RPTEC; 0.0300 uM): 86.40% | Metabolic Activity RPTEC (RPTEC; 0.1000 uM): 86.46% | Metabolic Activity RPTEC (RPTEC; 0.3000 uM): 58.03% | Metabolic Activity RPTEC (RPTEC; 1.0000 uM): 34.01% | Metabolic Activity RPTEC (RPTEC; 3.0000 uM): 22.01% | Metabolic Activity RPTEC (RPTEC; 10.0000 uM): 20.10% | IC50 (RPTEC; normal cells, MTS assay): 400 nM

C[C@@H]1C[C@H]2O[C@@H]2/C=C\C=C\C(=O)Cc2c(Cl)c(O)cc(O)c2C(=O)O1 [radicicol]
effect on K562 (separate study) (K562 cells; [4]): approximating those obtained for compound 237 | effect on RPTEC (separate study) (RPTEC; [4]): approximating those obtained for compound 237

COC1/C=C\C=C(/C)C(=O)NC2=CC(=O)C(NCCCNCCCNC3=C4CC(C)CC(OC)C(O)C(C)/C=C(\C)C(OC(N)=O)C(OC)/C=C\C=C(/C)C(=O)NC(=CC3=O)C4=O)=C(CC(C)CC(OC)C(O)C(C)/C=C(\C)C1OC(N)=O)C2=O (stereo not shown) [Compound 237]
IC50 (K562 cells; [3]): 100 nM | IC50 (RPTEC; Homo sapiens, RPTEC): 4000 nM
